# According to patent US12569534B2, “Therapeutic nanoparticles by coacervate complexation and their use for treating bacteria” (priority 2018, dated 2026):
# Key:
# [1] = Maximum tolerated dose, intravenous; conditions: BALB/c mice, tail vein, Example 1 study
# Text: See e,g., Li et al, International Journal of Pharmaceutics, 2016, 515, 20-29; and Barnett et al., British Journal of Pharmacology and Chemotherapy, 1964, 23, 552-574. The highest dosage at which all examined subjects remained alive was defined as the MTD.
# For this study, mice (8 weeks, Balb/c mice) were obtained from Bio-LASCO Taiwan Co., Ltd (Taipei, Taiwan). […] The highest dosage at which all examined subjects remained alive was defined as the MTD.
# E. coli [2] = test: MIC/MBC broth microdilution, Example 2; format: cell-based; conditions: Example 2 CS NPs
# Description: (§1) Reference bacterial stains were purchased from ATCC. Clinical isolates of carbapenem-resistant bacteria were obtained from National Health Research Institutes (NHRI) and Tri-Service General Hospital (TSGH). MIC is defined as the lowest concentration of antibiotics required to inhibit the growth of bacteria. MBC is defined as the lowest concentration of antibiotics required to eradicate microorganisms. The MICs of CS and the CS NPs were determined using a broth microdilution method. Bacterial suspensions were adjusted to a turbidity of McFarland 0.5±0.05 and cultured overnight with different concentrations of CS or CS NPs. A control group without antimicrobial treatment was prepared as a reference. Following overnight incubation, solution turbidity was determined by visual inspection. Culture wells with no observable turbidity were further sub-cultured for MBC evaluation. Solutions from the clear wells were deposited onto an agar plate and cultured overnight to determine the MBCs.
# (§2) To evaluate the antibacterial efficacy of the CS NPs of this study, their MIC and MBC were assessed against 5 reference bacterial strains and 20 clinical isolates of carbapenem-resistant A. baumannii, E. coli, K. pneumoniae, and P. aeruginosa according to the procedures set forth in EXAMPLE 1. Reference bacterial stains were purchased from ATCC. Carbapenem-resistant clinical isolated were obtained from NHRI.
# A. baumannii 17978 = test: Murine model of A. baumannii pneumonia, survival; format: in vivo; conditions: C57BL/6 mice, 5 mg/kg i.v. twice a day
# Description: Briefly, A. baumannii 17978 were grown in 30 mL LB broth under shaking at 37° C. to reach the mid-logarithmic phase. The bacteria were then pelleted by centrifugation at 4,000 g for 15 minutes. The bacteria pellet was resuspended in PBS and mixed with 5% mucin derived from porcine stomach (type 3; Sigma-Aldrich, Taiwan).
# To induce A. baumannii pneumonia, 8-week-old C57BL/6 mice (National Laboratory Animal Center, Taiwan) were first anesthetized with 2% tribromoethanol (Avertin; 0.018 mL/g). 6.07×10^8 CFU of A. baumannii 17978 were then administered to the mice via intra-tracheal injection to induce pneumonia (FIG. 4A). At 2 hours post-inoculation, the mice were treated twice a day with PBS (as the control), CS, or CS NPs at 5 mg/kg via intravenous injections.
# The efficacy between CS and the CS NPs was compared by survival analysis. The difference in survival among the groups was analyzed by a Log-rank test using GraphPad Prism. Treatment efficacy of CS and CS NPs was observed 36 hour post-infection as no mortality was recorded in either of the two drug treatment groups whereas 37.5% of the control group animals were deceased. […] The survival outcome supports retention of CS's antimicrobial activity following nanoparticle assembly.
# E. Coli ATCC 25922 = test: MIC and MBC of different treatments, Example 3; format: cell-based
# Description: as §1
# A. baumannii = test: MIC/MBC broth microdilution, Example 2; format: cell-based, Acinetobacter baumannii; conditions: Example 2 CS NPs
# Description: as §1, §2
# E. coli [3] = test: MIC/MBC broth microdilution, Example 1; format: cell-based; conditions: Example 1 CS NPs
# Description: (§3) To evaluate antibacterial efficacy of the CS NPs, their minimum inhibitory concentration (MIC) and minimum bactericidal concentration (MBC) were assessed against 5 reference bacterial strains and 39 clinical isolates of carbapenem-resistant A. baumannii, P. aeruginosa, E. coli, and K. pneumoniae.
# as §1
# P. aeruginosa = test: MIC/MBC broth microdilution, Example 1; format: cell-based, Pseudomonas aeruginosa; conditions: Example 1 CS NPs
# Description: as §3, §1
# [4] = clinical carbapenem-resistant isolate E. coli NHRI 1
# [5] = clinical carbapenem-resistant isolate E. coli NHRI 2
# [6] = clinical carbapenem-resistant isolate E. coli NHRI 3
# [7] = clinical carbapenem-resistant isolate E. coli NHRI 4
# [8] = clinical carbapenem-resistant isolate E. coli NHRI 5
# [9] = clinical carbapenem-resistant isolate A. baumannii NHRI 1
# [10] = clinical carbapenem-resistant isolate A. baumannii NHRI 2
# [11] = clinical carbapenem-resistant isolate A. baumannii NHRI 3
# [12] = clinical carbapenem-resistant isolate A. baumannii NHRI 4
# [13] = clinical carbapenem-resistant isolate A. baumannii NHRI 5
# [14] = reference strain A. baumannii 17978
# [15] = reference strain A. baumannii 19606
# [16] = clinical carbapenem-resistant E. coli NHRI 1
# [17] = clinical carbapenem-resistant E. coli NHRI 2
# [18] = clinical carbapenem-resistant E. coli NHRI 3
# [19] = clinical carbapenem-resistant E. coli NHRI 4
# [20] = clinical carbapenem-resistant E. coli NHRI 5
# [21] = clinical carbapenem-resistant E. coli TSGH 2
# [22] = clinical carbapenem-resistant E. coli TSGH 4
# [23] = clinical carbapenem-resistant E. coli TSGH 6
# [24] = clinical carbapenem-resistant E. coli TSGH 8
# [25] = clinical carbapenem-resistant E. coli TSGH 10
# [26] = clinical carbapenem-resistant E. coli TSGH 14
# [27] = clinical carbapenem-resistant E. coli TSGH 20
# [28] = clinical carbapenem-resistant E. coli TSGH 21
# [29] = clinical carbapenem-resistant P. aeruginosa NHRI 1
# [30] = clinical carbapenem-resistant P. aeruginosa NHRI 2
# [31] = clinical carbapenem-resistant P. aeruginosa NHRI 3
# [32] = clinical carbapenem-resistant P. aeruginosa NHRI 4
# [33] = clinical carbapenem-resistant P. aeruginosa NHRI 5
# [34] = reference strain P. aeruginosa 27853
substance,measurement,setting,value
colistin [CS],MTD,[1],10 mg/kg
same,MBC,E. coli [2]; [4],2 µg/mL
same,MIC,E. coli [2]; [4],2 µg/mL
same,MBC,E. coli [2]; [5],2 µg/mL
same,MIC,E. coli [2]; [5],1 µg/mL
same,MBC,E. coli [2]; [6],2 µg/mL
same,MIC,E. coli [2]; [6],1 µg/mL
same,MBC,E. coli [2]; [7],1 µg/mL
same,MIC,E. coli [2]; [7],1 µg/mL
same,MBC,E. coli [2]; [8],0.5 µg/mL
same,MIC,E. coli [2]; [8],0.5 µg/mL
same,MBC,E. coli [2]; reference strain E. coli 25922,2 µg/mL
same,MIC,E. coli [2]; reference strain E. coli 25922,1 µg/mL
same,mortality,A. baumannii 17978; 36 hour post-infection,no mortality
same,surviving mice out of 8 assessed animals,A. baumannii 17978; 72 hours of observation,4
same,MBC,E. Coli ATCC 25922,4 µg/mL
same,MIC,E. Coli ATCC 25922,2 µg/mL
same,MBC,A. baumannii; [9],2 µg/mL
same,MIC,A. baumannii; [9],1 µg/mL
same,MBC,A. baumannii; [10],2 µg/mL
same,MIC,A. baumannii; [10],2 µg/mL
same,MBC,A. baumannii; [11],2 µg/mL
same,MIC,A. baumannii; [11],1 µg/mL
same,MBC,A. baumannii; [12],4 µg/mL
same,MIC,A. baumannii; [12],1 µg/mL
same,MBC,A. baumannii; [13],2 µg/mL
same,MIC,A. baumannii; [13],1 µg/mL
same,MBC,A. baumannii; [14],2 µg/mL
same,MIC,A. baumannii; [14],2 µg/mL
same,MBC,A. baumannii; [15],4 µg/mL
same,MIC,A. baumannii; [15],2 µg/mL
same,MBC,E. coli [3]; [16],1 µg/mL
same,MIC,E. coli [3]; [16],1 µg/mL
same,MBC,E. coli [3]; [17],1 µg/mL
same,MIC,E. coli [3]; [17],1 µg/mL
same,MBC,E. coli [3]; [18],1 µg/mL
same,MIC,E. coli [3]; [18],1 µg/mL
same,MBC,E. coli [3]; [19],2 µg/mL
same,MIC,E. coli [3]; [19],1 µg/mL
same,MBC,E. coli [3]; [20],2 µg/mL
same,MIC,E. coli [3]; [20],1 µg/mL
same,MBC,E. coli [3]; [21],1 µg/mL
same,MIC,E. coli [3]; [21],1 µg/mL
same,MBC,E. coli [3]; [22],1 µg/mL
same,MIC,E. coli [3]; [22],1 µg/mL
same,MBC,E. coli [3]; [23],2 µg/mL
same,MIC,E. coli [3]; [23],1 µg/mL
same,MBC,E. coli [3]; [24],2 µg/mL
same,MIC,E. coli [3]; [24],1 µg/mL
same,MBC,E. coli [3]; [25],1 µg/mL
same,MIC,E. coli [3]; [25],1 µg/mL
same,MBC,E. coli [3]; [26],1 µg/mL
same,MIC,E. coli [3]; [26],1 µg/mL
same,MBC,E. coli [3]; [27],1 µg/mL
same,MIC,E. coli [3]; [27],1 µg/mL
same,MBC,E. coli [3]; [28],1 µg/mL
same,MIC,E. coli [3]; [28],1 µg/mL
same,MBC,E. coli [3]; reference strain E. coli 25922,2 µg/mL
same,MIC,E. coli [3]; reference strain E. coli 25922,1 µg/mL
same,MBC,P. aeruginosa; [29],2 µg/mL
same,MIC,P. aeruginosa; [29],2 µg/mL
same,MBC,P. aeruginosa; [30],4 µg/mL
same,MIC,P. aeruginosa; [30],2 µg/mL
same,MBC,P. aeruginosa; [31],8 µg/mL
same,MIC,P. aeruginosa; [31],2 µg/mL
same,MBC,P. aeruginosa; [32],8 µg/mL
same,MIC,P. aeruginosa; [32],4 µg/mL
same,MBC,P. aeruginosa; [33],4 µg/mL
same,MIC,P. aeruginosa; [33],2 µg/mL
same,MBC,P. aeruginosa; [34],1 µg/mL
same,MIC,P. aeruginosa; [34],1 µg/mL
